The results in this text go back to article PMC7866885 (PeerJ, 2021).

Holding throughout (test): DHFR activity, NADPH consumption at […] nm
What all share (assay type): biochemical

Test [1] concerns the target T1, S. suis dihydrofolate reductase (SsDHFR) (Streptococcus suis, UniProt A0A0H3N4C4).
T1 construct: gene dyr; full-length dhfr in pET15b (NdeI/BamHI, N-terminal vector tag kept); clarified lysate of E. coli BL21(DE3), not purified
T1 sequence (A0A0H3N4C4 1-170): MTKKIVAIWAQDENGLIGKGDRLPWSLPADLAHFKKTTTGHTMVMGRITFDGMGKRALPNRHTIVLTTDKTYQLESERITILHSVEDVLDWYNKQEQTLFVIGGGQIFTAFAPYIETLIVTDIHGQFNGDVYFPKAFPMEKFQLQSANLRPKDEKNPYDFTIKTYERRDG

For test [2], the target named is T1, S. suis dihydrofolate reductase (SsDHFR). The conditions noted are these: 0.1 mM dihydrofolate, 0.1 mM NADPH, 50 mM TES pH 7.0; lysate.
Test [3] shares this target. Conditions: 1 µM inhibitor; 0.1 mM dihydrofolate, 0.1 mM NADPH, 50 mM TES pH 7.0; lysate of overexpressing E. coli BL21(DE3), host DHFR background present.

As usually defined, the remaining activity is the share of the control activity or signal that is left under treatment. Low readings indicate a large loss of activity, high ones a small loss of activity. For `COc1ccc(OC)c(NCc2ccc3nc(N)nc(N)c3c2Cl)c1` [MMV675968], the remaining activity at 1 µM in test [1] came out at 2%.

In the case of `NC(=O)C1=CN([C@@H]2O[C@H](COP(=O)(O)OP(=O)(O)OC[C@H]3O[C@@H](n4cnc5c(N)ncnc54)[C@H](OP(=O)(O)O)[C@@H]3O)[C@@H](O)[C@H]2O)C=CC1` [NADPH], in test [2], the “DHFR activity, NADPH consumption at 340 nm” value is given as “DHFR uses NADPH as a cofactor for the conversion of dihydrofolate (DHF) to tetrahydrofolate (THF)”.

Regarding `CC1(C)N=C(N)N=C(N)N1c1ccc(Cl)cc1` [cycloguanil], the “% activity at 1 μM” value in test [3] is “Trimethoprim, pyrimethamine, and cycloguanil were moderately effective at inhibiting SsDHFR”.

With `CCc1nc(N)nc(N)c1-c1ccc(Cl)cc1` [pyrimethamine], in test [3], the “% activity at 1 μM” value was “Trimethoprim, pyrimethamine, and cycloguanil were moderately effective at inhibiting SsDHFR”.
